Assay results reported in patent US8987195B2 (priority 2012, dated 2015).
Like-named read-outs stand apart in the source and are kept apart here.

Assays:
HCV genotype 1b replicon = assay: HCV replicon assay, genotype 1b replicon EC50; format: cell-based, Hepatitis C virus; details: Hepatitis C virus, genotype 1b replicon, read-out: EC50 [gt-1b]
Outline: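 Potency comes from a four-parameter fit of signal as percent of DMSO control. Replicon-bearing cells were treated 24-48 hours with a compound dilution series in absence of G418, and replicon RNA was quantified normalized to cyclophilin A RNA, or luciferase read.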

[1] = target: HCV NS3/4A protease genotype 1b (Hepatitis C virus genotype 1b, UniProt P26663); assay: HCV NS3/4A protease time-resolved fluorescence (TRF) assay, Ki against genotype 1b; format: biochemical; details: IC50 [gt-1b] (nM), NS3/4A genotype 1b, enzyme 0.2 nM
HCV NS3/4A protease genotype 1b, sequence (P26663 1027-1657): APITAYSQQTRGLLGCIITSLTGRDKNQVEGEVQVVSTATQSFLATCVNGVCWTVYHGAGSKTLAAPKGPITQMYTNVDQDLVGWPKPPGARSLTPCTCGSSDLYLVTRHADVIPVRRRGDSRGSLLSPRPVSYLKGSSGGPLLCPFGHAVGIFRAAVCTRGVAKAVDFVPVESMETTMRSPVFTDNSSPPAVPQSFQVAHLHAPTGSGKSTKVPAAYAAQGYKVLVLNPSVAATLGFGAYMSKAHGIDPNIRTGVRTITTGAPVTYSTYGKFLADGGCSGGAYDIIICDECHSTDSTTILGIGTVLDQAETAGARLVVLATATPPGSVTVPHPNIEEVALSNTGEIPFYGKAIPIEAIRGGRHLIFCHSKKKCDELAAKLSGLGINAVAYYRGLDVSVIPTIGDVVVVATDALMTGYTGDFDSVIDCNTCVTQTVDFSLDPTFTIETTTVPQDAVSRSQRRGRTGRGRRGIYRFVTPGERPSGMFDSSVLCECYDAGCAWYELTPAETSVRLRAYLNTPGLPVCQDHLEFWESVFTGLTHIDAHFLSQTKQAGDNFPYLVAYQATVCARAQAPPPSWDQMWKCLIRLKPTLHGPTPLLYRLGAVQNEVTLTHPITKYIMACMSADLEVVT
HCV NS3/4A protease genotype 1b, sequence (P26663 1658-1711): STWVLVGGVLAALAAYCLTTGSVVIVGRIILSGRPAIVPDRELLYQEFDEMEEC
Outline: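 Ki values come from IC50 fits corrected for substrate concentration and KM. The time-resolved fluorescence protease reaction used 25 nM peptide substrate, 2.5 h, room temperature, pH 7.5 HEPES buffer, after 30 min enzyme–inhibitor preincubation.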

Compound	EC50 (HCV genotype 1b replicon) [nM]	IC50 [1] [nM]	also measured
CC(C)(C)OC(=O)N[C@H]1CCCCC/C=C\[C@@H]2C[C@@]2(C(=O)NS(=O)(=O)C2(C)CC2)NC(=O)[C@@H]2C[C@]3(CCc4c(c(C5CC5)nc5ccc6c(c45)OCO6)O3)CN2C1=O [Example 29, tert-butyl (2′R,6′S,13a′S,14a′R,16a′S,Z)-7-cyclopropyl-14a′-(1-methylcyclopropylsulfonylcarbamoyl)-5′,16′-dioxo-3′,5′,6′,7′,8′,9′,10,10′,11,11′,13a′,14′, 14a′,15′,16′,16a′-hexadecahydro-1′H-spiro[[1,3]dioxolo[4,5-f]pyrano[2,3-c]quinoline-9,2′-cyclopropa[e]pyrrolo[1,2-a][1,4]diazacyclopentadecine]-6′-ylcarbamate]	0.608	0.021	
CC(C)(C)OC(=O)N[C@H]1CCCCC/C=C\[C@@H]2C[C@@]2(C(=O)NS(=O)(=O)C2(C)CC2)NC(=O)[C@@H]2C[C@]3(CCc4c(c(C(F)(F)F)nc5c(Cl)cccc45)O3)CN2C1=O [Example 31, tert-butyl ((2R,6S,13aS,14aR,16aS,Z)-7′-chloro-14a-(((1-methylcyclopropyl)sulfonyl)carbamoyl)-5,16-dioxo-5′-(trifluoromethyl)-1′,2′,3,5,6,7,8,9,10,11,13a,14,14a,15, 16,16a-hexadecahydro-1H-spiro[cyclopropa[e]pyrrolo[1,2-a][1,4]diazacyclopentadecine-2,3′-pyrano[2,3-c]quinolin]-6-yl)carbamate]	1.56	0.02	
COc1ccc2nc(C(F)(F)F)c3c(c2n1)C(F)C[C@]1(C[C@H]2C(=O)N[C@]4(C(=O)NS(=O)(=O)C5(C)CC5)C[C@H]4/C=C\CCCCC[C@H](NC(=O)OC(C)(C)C)C(=O)N2C1)O3 (stereo partly drawn) [Example 33, tert-butyl ((2S,6S,13aS,14aR,16aS,Z)-10′-fluoro-2′-methoxy-14a-(((1-methylcyclopropyl)sulfonyl)carbamoyl)-5,16-dioxo-6′-(trifluoromethyl)-3,5,6,7,8,9,9′,10,10′, 11,13a,14,14a,15,16,16a-hexadecahydro-1H-spiro[cyclopropa[e]pyrrolo[1,2-a][1,4]diazacyclopentadecine-2,8′-pyrano[2,3-c][1,5]naphthyridin]-6-yl)carbamate]	1.65	0.042	
COc1ccc2nc(C)c3c(c2c1)CC[C@]1(C[C@H]2C(=O)N[C@]4(C(=O)NS(=O)(=O)C5(C)CC5)C[C@H]4CCCCCCC[C@H](NC(=O)OC(C)(C)C)C(=O)N2C1)O3 [Example 34, tert-Butyl ((2R,6S,13aR,14aR,16aS)-9′-methoxy-5′-methyl-14a-(((1-methylcyclopropyl)sulfonyl)carbamoyl)-5,16-dioxo-1′,2′,3,5,6,7,8,9,10,11,12,13,13a,14,14a,15, 16,16a-octadecahydro-1H-spiro[cyclopropa[e]pyrrolo[1,2-a][1,4]diazacyclopentadecine-2,3′-pyrano[2,3-c]quinolin]-6-yl)carbamate]	1.79	0.013	
COc1ccc2nc(C)c3c(c2c1)CC[C@]1(C[C@H]2C(=O)N[C@]4(C(=O)NS(=O)(=O)C5(C)CC5)C[C@H]4CCCCCCC[C@H](NC(=O)OC(C)(C)C(F)(F)F)C(=O)N2C1)O3 [Example 35]		0.016	EC50 (HCV genotype 1b replicon; GETYPE1B|GT1B): 1.69 nM
CCc1nc2ccc(OC)cc2c2c1O[C@]1(C[C@H]2F)C[C@H]2C(=O)N[C@]3(C(=O)NS(=O)(=O)C4(C)CC4)C[C@H]3/C=C\CCCCC[C@H](NC(=O)OCC(C)(C)C)C(=O)N2C1 [Example 36, Neopentyl((1′R,2S,6S,13aS,14aR,16aS,Z)-5′-ethyl-1′-fluoro-9′-methoxy-14a-(((1-methylcyclopropyl)sulfonyl)carbamoyl)-5,16-dioxo-1′,2′,3,5,6,7,8,9,10,11,13a,14,14a, 15,16,16a-hexadecahydro-1H-spiro[cyclopropa[e]pyrrolo[1,2-a][1,4]diazacyclopentadecine-2,3′-pyrano[2,3-c]quinolin]-6-yl)carbamate]	1.2	0.009	
CC(C)(C)OC(=O)N[C@H]1CCCCC/C=C\[C@@H]2C[C@@]2(C(=O)NS(=O)(=O)C2(C)CC2)NC(=O)[C@@H]2C[C@]3(CCc4c(c(CN5CCOCC5)nc5ccccc45)O3)CN2C1=O [Example 38, tert-butyl ((2R,6S,13aS,14aR,16aS,Z)-14a-(((1-methylcyclopropyl)sulfonyl)carbamoyl)-5′-(morpholinomethyl)-5,16-dioxo-1′,2′,3,5,6,7,8,9,10,11,13a,14,14a,15,16,16a-hexadecahydro-1H-spiro[cyclopropa[e]pyrrolo[1,2-a][1,4]diazacyclopentadecine-2,3′-pyrano[2,3-c]quinolin]-6-yl)carbamate]	22.1	0.058	
Cc1nc2ccc(Cl)cc2c2c1O[C@]1(CC2)C[C@H]2C(=O)N[C@]3(C(=O)NS(=O)(=O)C4(C)CC4)C[C@H]3/C=C\CCCCC[C@H](NC(=O)OC(C)(C)C)C(=O)N2C1 [Example 39, tert-Butyl ((2R,6S,13aS,14aR,16aS,Z)-9′-chloro-5′-methyl-14a-(((1-methylcyclopropyl)sulfonyl)carbamoyl)-5,16-dioxo-1′,2′,3,5,6,7,8,9,10,11,13a,14,14a,15,16,16a-hexadecahydro-1H-spiro[cyclopropa[e]pyrrolo[1,2-a][1,4]diazacyclopentadecine-2,3′-pyrano[2,3-c]quuinolin]-6-yl)carbamate]	0.59	0.004	
Cc1nc2ccc(Cl)cc2c2c1O[C@]1(CC2)C[C@H]2C(=O)N[C@]3(C(=O)NS(=O)(=O)C4(C)CC4)C[C@H]3/C=C\CCCCC[C@H](NC(=O)OCC(C)(C)C)C(=O)N2C1 [Example 40, Neopentyl((2R,6S,13aS,14aR,16aS,Z)-9′-chloro-5′-methyl-14a-(((1-methylcyclopropyl)sulfonyl)carbamoyl)-5,16-dioxo-1′,2′,3,5,6,7,8,9,10,11,13a,14,14a,15,16,16a-hexadecahydro-1H-spiro[cyclopropa[e]pyrrolo[1,2-a][1,4]diazacyclopentadecine-2,3′-pyrano[2,3-c]quinolin]-6-yl)carbamate]			EC50 (HCV genotype 1b replicon; K+ salt): 5.33 nM; IC50 ([1]; K+ salt): 0.005 nM
Cc1nc2ccc(Cl)cc2c2c1O[C@]1(CC2)C[C@H]2C(=O)N[C@]3(C(=O)NS(=O)(=O)C4(C)CC4)C[C@H]3/C=C\CCCCC[C@H](NC(=O)OCC3(C)CC3)C(=O)N2C1 [Example 41]			EC50 (HCV genotype 1b replicon; GETYPE1B|GT1B, K+ salt): 16.2 nM; IC50 ([1]; K+ salt): 0.007 nM
Cc1ccc2nc(C)c3c(c2c1)CC[C@]1(C[C@H]2C(=O)NC4(C(=O)NS(=O)(=O)C5(C)CC5)C[C@H]4/C=C\CCCCC[C@H](NC(=O)OC(C)(C)C)C(=O)N2C1)O3 (stereo partly drawn) [Example 42, tert-Butyl (1aR,3aS,3′R,9S,16aS,Z)-5′,9′-dimethyl-1a-(1-methylcyclopropylsulfonylcarbamoyl)-3,8-dioxo-1a,1′,2,2′,3,3a,4,6,8,9,10,11,12,13,14,16a-hexadecahydro-1H -spiro[cyclopropa[e]pyrrolo[1,2-a][1,4]diazacyclopentadecine-5,3′-pyrano[2,3-c]quinoline]-9-ylcarbamate]	2.59	0.008	
Cc1nc2ccc(F)cc2c2c1O[C@]1(CC2)C[C@H]2C(=O)N[C@]3(C(=O)NS(=O)(=O)C4(C)CC4)C[C@H]3/C=C\CCCCC[C@H](NC(=O)OC(C)(C)C)C(=O)N2C1 [Example 43, tert-Butyl (1aR,3aS,3′R,9S,16aS,Z)-9′-fluoro-5′-methyl-1a-(1-methylcyclopropylsulfonylcarbamoyl)-3,8-dioxo-1a,1′,2,2′,3,3a,4,6,8,9,10,11,12,13,14,16a-hexadecahydro-1H-spiro[cyclopropa[e]pyrrolo[1,2-a][1,4]diazacyclopentadecine-5,3′-pyrano[2,3-c]quinoline]-9-ylcarbamate]	1.25	0.005	
Cc1nc2c(C(F)(F)F)cccc2c2c1O[C@]1(CC2)C[C@H]2C(=O)N[C@]3(C(=O)NS(=O)(=O)C4(C)CC4)C[C@H]3/C=C\CCCCC[C@H](NC(=O)OC(C)(C)C)C(=O)N2C1 [Example 44, tert-Butyl (1aR,3aS,3′R,9S,16aS,Z)-5′-methyl-1a-(1-methylcyclopropylsulfonylcarbamoyl)-3,8-dioxo-7′-(trifluoromethyl)-1a,1′,2,2′,3,3a,4,6,8,9,10,11,12,13,14,16a-hexadecahydro-1H-spiro[cyclopropa[e]pyrrolo[1,2-a][1,4]diazacyclopentadecine-5,3′-pyrano[2,3-c]quinoline]-9-ylcarbamate]	1.6	0.104	
Cc1nc2c(F)cccc2c2c1O[C@]1(CC2)C[C@H]2C(=O)NC3(C(=O)NS(=O)(=O)C4(C)CC4)C[C@H]3/C=C\CCCCC[C@H](NC(=O)OC(C)(C)C)C(=O)N2C1 (stereo partly drawn) [Example 45, tert-Butyl (1aR,3aS,3′R,9S,16aS,Z)-7′-fluoro-5′-methyl-1a-(1-methylcyclopropylsulfonylcarbamoyl)-3,8-dioxo-1a,1′,2,2′,3,3a,4,6,8,9,10,11,12,13,14,16a-hexadecahydro-1H-spiro[cyclopropa[e]pyrrolo[1,2-a][1,4]diazacyclopentadecine-5,3′-pyrano[2,3-c]quinoline]-9-ylcarbamate]	1.1	0.011	
